According to PubChem BioAssay AID330 (DTP/NCI, 2004):
“And” between values parts separate entries of the source, which are not always exact repeats. Identical values can stand only once. Toxic doses and inconclusive results are not listed.

Tested on: P388 leukemia ip, CD2F1 mice, survival T/C
Assay: NCI In Vivo Anticancer Drug Screen. Data for tumor model P388 Leukemia (intraperitoneal) in CD2F1 (CDF1) mice
Conditions: endpoint: median survival time, higher = longer survival
Outline: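 Mice carrying the transplanted tumor received test compound or vehicle. Survival was recorded in each group, and the value is the treated-group measurement divided by that of the vehicle-treated control group.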

[1] = dose: 12.5 mg/kg/injection, schedule: Q01DX005 (ip), vehicle: saline with Tween-80
[2] = dose: 25.0 mg/kg/injection, schedule: Q01DX005 (ip), vehicle: saline with Tween-80
[3] = dose: 50.0 mg/kg/injection, schedule: Q01DX005 (ip), vehicle: saline with Tween-80
[4] = dose: 100.0 mg/kg/injection, schedule: Q01DX005 (ip), vehicle: saline with Tween-80
[5] = dose: 200.0 mg/kg/injection, schedule: Q01DX005 (ip), vehicle: saline with Tween-80

## COc1cc([C@@H]2c3cc4c(c(O)c3C[C@H]3COC(=O)[C@@H]32)OCO4)cc(OC)c1O
dose: 0.25 mg/kg/injection, schedule: Q01DX009 (ip), vehicle: suspension in saline
  T/C: 121 % of control
dose: 1.0 mg/kg/injection, schedule: Q01DX009 (ip), vehicle: saline
  T/C: 150 % of control
dose: 1.0 mg/kg/injection, schedule: Q01DX009 (ip), vehicle: suspension in saline
  T/C: 99 % of control

## O=[N+]([O-])c1ccc(NN=NCCF)cc1
dose: 0.44 mg/kg/injection, schedule: Q01DX005 (ip), vehicle: other
  T/C: 102 % of control and 94 % of control
dose: 0.88 mg/kg/injection, schedule: Q01DX005 (ip), vehicle: other
  T/C: 102 % of control and 94 % of control
dose: 1.75 mg/kg/injection, schedule: Q01DX005 (ip), vehicle: other
  T/C: 105 % of control and 124 % of control and 94 % of control
dose: 3.5 mg/kg/injection, schedule: Q01DX005 (ip), vehicle: other
  T/C: 100 % of control and 106 % of control and 94 % of control
dose: 7.0 mg/kg/injection, schedule: Q01DX005 (ip), vehicle: other
  T/C: 109 % of control

## CCCCN(CCCC)c1ccc(C(=NC(C)CCCN(CC)CC)c2ccc(N(C)C)cc2)cc1 (configuration not stated)
dose: 6.25 mg/kg/injection, schedule: Q01DX005 (ip), vehicle: saline with Tween-80
  T/C: 107 % of control
[1]
  T/C: 98 % of control
[2]
  T/C: 100 % of control

## CCNC(=O)CCC(NS(=O)(=O)c1ccc(NC(C)=O)cc1)C(=O)O (configuration not stated)
dose: 100.0 mg/kg/injection, schedule: Q04DX002 (ip), vehicle: Klucel (hydroxypropylcellulose) (HPC)
  T/C: 91 % of control
dose: 200.0 mg/kg/injection, schedule: Q04DX002 (ip), vehicle: Klucel (hydroxypropylcellulose) (HPC)
  T/C: 107 % of control
dose: 400.0 mg/kg/injection, schedule: Q04DX002 (ip), vehicle: Klucel (hydroxypropylcellulose) (HPC)
  T/C: 92 % of control

## O=C1CCCCCCCC(=O)Nc2ccc3nc4ccccc4c(c3c2)SCCCCCCCCCCCCSc2c3ccccc3nc3ccc(cc23)N1
[3]
  T/C: 105 % of control
[4]
  T/C: 107 % of control
[5]
  T/C: 104 % of control

## CCOc1cccc(/C=N/NC(=O)C(N)Cc2ccc(O)cc2)c1O (configuration not stated)
[3]
  T/C: 99 % of control
[4]
  T/C: 99 % of control
[5]
  T/C: 99 % of control

## COc1cc(C2c3cc4c(cc3OC3(N5CCCC5)CCCC23)OCO4)cc(OC)c1OC (configuration not stated)
dose: 60.0 mg/kg/injection, schedule: Q01DX005 (ip), vehicle: Klucel (hydroxypropylcellulose) (HPC)
  T/C: 96 % of control
dose: 120.0 mg/kg/injection, schedule: Q01DX005 (ip), vehicle: Klucel (hydroxypropylcellulose) (HPC)
  T/C: 97 % of control
dose: 240.0 mg/kg/injection, schedule: Q01DX005 (ip), vehicle: Klucel (hydroxypropylcellulose) (HPC)
  T/C: 96 % of control

## N#Cc1c(C(=O)NOCCCc2ccccc2)cc(-c2ccc(F)cc2)[nH]c1=O
dose: 60.0 mg/kg/injection, schedule: Q01DX005 (ip), vehicle: saline with Tween-80
  T/C: 107 % of control
dose: 120.0 mg/kg/injection, schedule: Q01DX005 (ip), vehicle: saline with Tween-80
  T/C: 103 % of control

## Cc1[nH]c(=O)[nH]c(=O)c1/C=C/C(=O)NC(CO)CS(=O)C(C)C (configuration not stated)
dose: 0.07 mg/kg/injection, schedule: Q01DX009 (ip), vehicle: water
  T/C: 103 % of control
dose: 0.15 mg/kg/injection, schedule: Q01DX009 (ip), vehicle: water
  T/C: 100 % of control
dose: 0.3 mg/kg/injection, schedule: Q01DX009 (ip), vehicle: water
  T/C: 103 % of control
dose: 0.6 mg/kg/injection, schedule: Q01DX009 (ip), vehicle: water
  T/C: 103 % of control
dose: 2.0 mg/kg/injection, schedule: Q01DX009 (ip), vehicle: water
  T/C: 121 % of control
dose: 4.0 mg/kg/injection, schedule: Q01DX009 (ip), vehicle: water
  T/C: 118 % of control
dose: 8.0 mg/kg/injection, schedule: Q01DX009 (ip), vehicle: water
  T/C: 118 % of control
dose: 32.0 mg/kg/injection, schedule: Q01DX009 (ip), vehicle: water
  T/C: 100 % of control and 124 % of control
dose: 64.0 mg/kg/injection, schedule: Q01DX009 (ip), vehicle: water
  T/C: 93 % of control
dose: 128.0 mg/kg/injection, schedule: Q01DX009 (ip), vehicle: water
  T/C: 98 % of control
dose: 200.0 mg/kg/injection, schedule: Q01DX009 (ip), vehicle: water
  T/C: 108 % of control
dose: 256.0 mg/kg/injection, schedule: Q01DX009 (ip), vehicle: water
  T/C: 96 % of control
dose: 300.0 mg/kg/injection, schedule: Q01DX009 (ip), vehicle: water
  T/C: 110 % of control
dose: 400.0 mg/kg/injection, schedule: Q01DX009 (ip), vehicle: water
  T/C: 113 % of control

## COc1ccc(S(=O)(=O)N/N=C(/C(=O)O)c2ccccc2)cc1
[1]
  T/C: 95 % of control
[2]
  T/C: 94 % of control
[3]
  T/C: 106 % of control
[4]
  T/C: 100 % of control
[5]
  T/C: 109 % of control and 112 % of control
dose: 400.0 mg/kg/injection, schedule: Q01DX005 (ip), vehicle: saline with Tween-80
  T/C: 109 % of control

## O=c1[nH]c2ccccc2nc1N=Nc1ccccc1
[3]
  T/C: 96 % of control
[4]
  T/C: 96 % of control
